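Test compounds were applied to cells in 96-well plates for 48 hours at 5 doses. Abbreviation: GI50, concentration required for 50% inhibition of growth. At the TGI there is no net growth.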
What was measured:
Experiment in all cases: DTP human tumour cell line panel, 48 h
NCI-H226 lung = system: NCI-H226 lung
NCI-H23 lung = system: NCI-H23 lung
NCI-H460 lung = system: NCI-H460 lung
NCI-H522 lung = system: NCI-H522 lung
NCI/ADR-RES ovarian = system: NCI/ADR-RES ovarian
OVCAR-3 ovarian = system: OVCAR-3 ovarian
OVCAR-4 ovarian = system: OVCAR-4 ovarian
OVCAR-5 ovarian = system: OVCAR-5 ovarian
OVCAR-8 ovarian = system: OVCAR-8 ovarian
PC-3 prostate = system: PC-3 prostate
RPMI-8226 leukemia = system: RPMI-8226 leukemia
RXF 393 renal = system: RXF 393 renal
SF-268 CNS = system: SF-268 CNS
SF-295 CNS = system: SF-295 CNS
SF-539 CNS = system: SF-539 CNS
SK-MEL-2 melanoma = system: SK-MEL-2 melanoma
SK-MEL-28 melanoma = system: SK-MEL-28 melanoma
SK-MEL-5 melanoma = system: SK-MEL-5 melanoma
SK-OV-3 ovarian = system: SK-OV-3 ovarian
SN12C renal = system: SN12C renal
SNB-19 CNS = system: SNB-19 CNS
SNB-75 CNS = system: SNB-75 CNS
SW-620 colon = system: SW-620 colon
T-47D breast = system: T-47D breast
TK-10 renal = system: TK-10 renal
U251 CNS = system: U251 CNS
UACC-257 melanoma = system: UACC-257 melanoma
UACC-62 melanoma = system: UACC-62 melanoma
UO-31 renal = system: UO-31 renal

## CC(=O)O[C@@H]1C2CCC3C(CC[C@@]4(C)C3CC[C@@H]4C(C)N(C)C)[C@@]2(C)CC[C@@H]1NC(=O)C=C(C)C (some centres not stated)
NCI-H226 lung
  TGI: 19.6 µM
NCI-H23 lung
  GI50: 3.13 µM
  TGI: 14 µM
NCI-H460 lung
  GI50: 1.67 µM
  TGI: 3.31 µM
NCI-H522 lung
  GI50: 2.74 µM
  TGI: 8.58 µM
NCI/ADR-RES ovarian
  GI50: 4.26 µM
  TGI: 17.7 µM
OVCAR-3 ovarian
  GI50: 2.24 µM
  TGI: 7.42 µM
OVCAR-4 ovarian
  GI50: 3.51 µM
  TGI: 17.2 µM
OVCAR-5 ovarian
  GI50: 3.33 µM
  TGI: 14.1 µM
OVCAR-8 ovarian
  GI50: 4.64 µM
  TGI: > 35.7 µM
PC-3 prostate
  GI50: 2.79 µM
  TGI: 13.9 µM
RPMI-8226 leukemia
  GI50: 1.96 µM
  TGI: 5.53 µM
RXF 393 renal
  GI50: 1.46 µM
  TGI: 3.21 µM
SF-268 CNS
  GI50: 1.56 µM
  TGI: 3.31 µM
SF-295 CNS
  GI50: 1.85 µM
  TGI: 4.42 µM
SF-539 CNS
  GI50: 1.34 µM
  TGI: 2.71 µM
SK-MEL-2 melanoma
  GI50: 2.89 µM
  TGI: 6.85 µM
SK-MEL-28 melanoma
  GI50: 1.73 µM
  TGI: 3.27 µM
SK-MEL-5 melanoma
  GI50: 1.38 µM
  TGI: 2.68 µM
SK-OV-3 ovarian
  GI50: 3.61 µM
  TGI: 10.3 µM
SN12C renal
  GI50: 3.2 µM
  TGI: 12.3 µM
SNB-19 CNS
  GI50: 6.89 µM
  TGI: 18.7 µM
SNB-75 CNS
  GI50: 2.35 µM
  TGI: 9.31 µM
SW-620 colon
  GI50: 1.73 µM
  TGI: 3.48 µM
T-47D breast
  GI50: 1.75 µM
  TGI: 6.23 µM
TK-10 renal
  GI50: 5.21 µM
  TGI: 17.4 µM
U251 CNS
  GI50: 2.22 µM
  TGI: 8.61 µM
UACC-257 melanoma
  GI50: 2.33 µM
  TGI: 4.98 µM
UACC-62 melanoma
  GI50: 2.03 µM
  TGI: 3.96 µM
UO-31 renal
  GI50: 1.5 µM
  TGI: 3.33 µM
